The text below walks through data of PMC5496928, “Data driven polypharmacological drug design for lung cancer: analyses for targeting ALK, MET, and EGFR” (Journal of Cheminformatics, 2017).

A value given as a limit tells only on which side of the number the result lay.

The test system of assay [1] is EGFR. Also noted: method as in PMID 20033049. Particulars: cited from earlier work.
The target in assay [2] is T1, MET (Homo sapiens, UniProt P08581).
T1 construct: purchased DiscoverX
Particulars: cited from earlier work.

The target of assay [3] is T2, ALK (Homo sapiens, UniProt Q9UM73).
T2 construct: purchased DiscoverX
Also noted: method as in PMID 20033049. Particulars: cited from earlier work.

Assay [4] deals with T3, EGFR (L858R) (Homo sapiens, UniProt P00533, L858R).
T3 construct: purchased DiscoverX
Put plainly: scanKINETIC binding kinetics assay (DiscoverX). Particulars: for Percentage comparing 1 or 6 h incubation, EGFR LR: percentages significantly lower than 100% indicate slow association; for Percentage after 30× dilution, EGFR LR: apparent residual compound relative to bound value at 1 h, significantly higher than 3% indicates slow dissociation. From the text: (§1) Tests of the compounds confirm suitability for ALK + MET + EGFR polypharmacology optimization (Table 1). […] For compound 1, ^3 with the acrylamide function at the site corresponding to that of WZ4002, both ALK and MET binding were inhibited more weakly compared to EGFR binding. […] The sensitivity to the assay conditions seen for both forms of EGFR and uniformly tighter binding under the new assay conditions may indicate tighter binding for ALK and MET under these altered assay conditions as well.
(§2) The kinetics testing results (Table 1) support several further important conclusions. […] The simultaneous appearance of slow association and slow dissociation complicates the interpretation of the results, but the percentage values shown in Table 1 show the apparent residual amounts of compounds relative to bound values at 1 h. These values indicate retention of roughly half of compound 1, and nearly all of compound 2a, after dilution. […] The similarity of compound 2a to 2b and 1 with respect to structure and binding strength, differing only in the linker to the acrylamide binding group, is further evidence that that it is the covalent binding property that determines the difference in binding kinetics, rather than e.g. a slow conformational change of the target enzymes.
(§3) The three tricyclic compounds (1, 2a and 2b) were purchased from the company ARTTSynthesis (www.arttsynthesis.com). Tests for binding properties were performed by the company DiscoverX (www.discoverx.com), using a concentration of 1 µM against ALK, MET and EGFR variants L858R and L858R_T790M) using KdELECT and scanKINETIC from DiscoverX [124, 125].

The target in assay [5] is T4, EGFR (L858R, T790M) (Homo sapiens, UniProt P00533, L858R/T790M).
T4 construct: purchased DiscoverX
As to the kind of experiment: scanKINETIC binding kinetics assay (DiscoverX). Particulars: for Percentage comparing 1 or 6 h incubation, EGFR LR+TM: percentages significantly lower than 100% indicate slow association; for Percentage after 30× dilution, EGFR LR+TM: apparent residual compound relative to bound value at 1 h, significantly higher than 3% indicates slow dissociation.
From the text: as §1, §2, §3

The test system of assay [6] is EGFR (L858R) and EGFR (L858R, T790M). Put plainly: scanKINETIC conclusions stated in text for both EGFR forms together. In kind it is binding. The following applies: for Dissociation behaviour: 30-fold dilution following one hour of incubation; for Association behaviour: comparing 1-h and 6-h incubation times; for Retention of compound after dilution: relative to bound values at 1 h; for Covalent binding to EGFR (both forms): interpretation of kinetics data.
From the text: as §1, §2, §3

In assay [7] the target is T3, EGFR (L858R). As to the kind of experiment: KdELECT binding assay (DiscoverX). Particulars: read-out: Kd study, EGFR LR.
From the text: as §1, §3

Assay [8] addresses T4, EGFR (L858R, T790M). Put plainly: KdELECT binding assay (DiscoverX). The following applies: read-out: Kd study, EGFR LR+TM.
From the text: as §1, §3

Assay [9] addresses T1, MET. Put plainly: KdELECT binding assay (DiscoverX). Particulars: read-out: Kd study, MET.
From the text: as §1, §3

The target in assay [10] is T2, ALK. Put plainly: KdELECT binding assay (DiscoverX). The following applies: read-out: Kd study, ALK.
From the text: as §1, §3

For assay [11], the system named is MET mutant Y1230C. Also noted: method as in PMID 19459657. The following applies: cellular assay; cited from earlier work.
Where [12] appears, read: Kd, EGFR LR (1 h), scanKINETIC, 1 h incubation.
The mark [13] stands for this setting: Kd, EGFR LR (6 h), scanKINETIC, 6 h incubation.
The mark [14] stands for this setting: Kd, EGFR LR+TM (1 h), scanKINETIC, 1 h incubation.
Setting [15] is: Kd, EGFR LR+TM (6 h), scanKINETIC, 6 h incubation.
Where [16] appears, read: Apparent Kd, EGFR LR (30× dilution), 30× dilution after 1 h incubation.
Setting [17] is: Apparent Kd, EGFR LR+TM (30× dilution), 30× dilution after 1 h incubation.

T1 sequence (P08581 25-1390): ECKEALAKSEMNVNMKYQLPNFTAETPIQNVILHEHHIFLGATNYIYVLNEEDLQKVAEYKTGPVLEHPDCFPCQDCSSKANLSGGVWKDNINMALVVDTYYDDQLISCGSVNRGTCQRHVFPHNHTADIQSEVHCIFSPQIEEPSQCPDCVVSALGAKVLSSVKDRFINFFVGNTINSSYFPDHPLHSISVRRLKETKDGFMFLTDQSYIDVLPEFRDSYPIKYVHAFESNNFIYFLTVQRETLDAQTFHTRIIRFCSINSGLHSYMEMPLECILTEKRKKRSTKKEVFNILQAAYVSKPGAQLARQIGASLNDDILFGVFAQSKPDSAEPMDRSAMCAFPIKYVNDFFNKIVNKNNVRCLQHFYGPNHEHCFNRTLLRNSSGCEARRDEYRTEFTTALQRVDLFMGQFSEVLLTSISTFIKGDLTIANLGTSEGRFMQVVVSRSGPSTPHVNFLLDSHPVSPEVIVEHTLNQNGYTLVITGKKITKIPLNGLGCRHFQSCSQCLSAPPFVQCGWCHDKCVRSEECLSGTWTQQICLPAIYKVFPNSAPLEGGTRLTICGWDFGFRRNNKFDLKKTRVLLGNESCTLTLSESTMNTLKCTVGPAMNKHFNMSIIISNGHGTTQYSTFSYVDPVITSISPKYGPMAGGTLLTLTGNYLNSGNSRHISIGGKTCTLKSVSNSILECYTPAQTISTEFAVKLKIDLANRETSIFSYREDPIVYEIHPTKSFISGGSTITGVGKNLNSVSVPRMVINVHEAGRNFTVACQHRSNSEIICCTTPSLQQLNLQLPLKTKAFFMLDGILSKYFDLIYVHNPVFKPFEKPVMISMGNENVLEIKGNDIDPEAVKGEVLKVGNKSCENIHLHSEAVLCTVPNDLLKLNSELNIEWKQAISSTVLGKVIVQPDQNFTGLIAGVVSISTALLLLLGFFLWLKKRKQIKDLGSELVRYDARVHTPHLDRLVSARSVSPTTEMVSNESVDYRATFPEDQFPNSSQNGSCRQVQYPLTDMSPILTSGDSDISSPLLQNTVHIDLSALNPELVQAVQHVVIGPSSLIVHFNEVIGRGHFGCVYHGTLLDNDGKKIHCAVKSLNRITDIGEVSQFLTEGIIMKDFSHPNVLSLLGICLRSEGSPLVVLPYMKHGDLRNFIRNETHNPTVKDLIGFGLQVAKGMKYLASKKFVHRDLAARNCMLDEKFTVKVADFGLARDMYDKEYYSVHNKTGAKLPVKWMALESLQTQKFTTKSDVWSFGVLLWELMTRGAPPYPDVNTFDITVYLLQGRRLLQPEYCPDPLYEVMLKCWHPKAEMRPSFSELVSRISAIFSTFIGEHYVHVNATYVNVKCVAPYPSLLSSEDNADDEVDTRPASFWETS
T2 sequence (Q9UM73 19-1620): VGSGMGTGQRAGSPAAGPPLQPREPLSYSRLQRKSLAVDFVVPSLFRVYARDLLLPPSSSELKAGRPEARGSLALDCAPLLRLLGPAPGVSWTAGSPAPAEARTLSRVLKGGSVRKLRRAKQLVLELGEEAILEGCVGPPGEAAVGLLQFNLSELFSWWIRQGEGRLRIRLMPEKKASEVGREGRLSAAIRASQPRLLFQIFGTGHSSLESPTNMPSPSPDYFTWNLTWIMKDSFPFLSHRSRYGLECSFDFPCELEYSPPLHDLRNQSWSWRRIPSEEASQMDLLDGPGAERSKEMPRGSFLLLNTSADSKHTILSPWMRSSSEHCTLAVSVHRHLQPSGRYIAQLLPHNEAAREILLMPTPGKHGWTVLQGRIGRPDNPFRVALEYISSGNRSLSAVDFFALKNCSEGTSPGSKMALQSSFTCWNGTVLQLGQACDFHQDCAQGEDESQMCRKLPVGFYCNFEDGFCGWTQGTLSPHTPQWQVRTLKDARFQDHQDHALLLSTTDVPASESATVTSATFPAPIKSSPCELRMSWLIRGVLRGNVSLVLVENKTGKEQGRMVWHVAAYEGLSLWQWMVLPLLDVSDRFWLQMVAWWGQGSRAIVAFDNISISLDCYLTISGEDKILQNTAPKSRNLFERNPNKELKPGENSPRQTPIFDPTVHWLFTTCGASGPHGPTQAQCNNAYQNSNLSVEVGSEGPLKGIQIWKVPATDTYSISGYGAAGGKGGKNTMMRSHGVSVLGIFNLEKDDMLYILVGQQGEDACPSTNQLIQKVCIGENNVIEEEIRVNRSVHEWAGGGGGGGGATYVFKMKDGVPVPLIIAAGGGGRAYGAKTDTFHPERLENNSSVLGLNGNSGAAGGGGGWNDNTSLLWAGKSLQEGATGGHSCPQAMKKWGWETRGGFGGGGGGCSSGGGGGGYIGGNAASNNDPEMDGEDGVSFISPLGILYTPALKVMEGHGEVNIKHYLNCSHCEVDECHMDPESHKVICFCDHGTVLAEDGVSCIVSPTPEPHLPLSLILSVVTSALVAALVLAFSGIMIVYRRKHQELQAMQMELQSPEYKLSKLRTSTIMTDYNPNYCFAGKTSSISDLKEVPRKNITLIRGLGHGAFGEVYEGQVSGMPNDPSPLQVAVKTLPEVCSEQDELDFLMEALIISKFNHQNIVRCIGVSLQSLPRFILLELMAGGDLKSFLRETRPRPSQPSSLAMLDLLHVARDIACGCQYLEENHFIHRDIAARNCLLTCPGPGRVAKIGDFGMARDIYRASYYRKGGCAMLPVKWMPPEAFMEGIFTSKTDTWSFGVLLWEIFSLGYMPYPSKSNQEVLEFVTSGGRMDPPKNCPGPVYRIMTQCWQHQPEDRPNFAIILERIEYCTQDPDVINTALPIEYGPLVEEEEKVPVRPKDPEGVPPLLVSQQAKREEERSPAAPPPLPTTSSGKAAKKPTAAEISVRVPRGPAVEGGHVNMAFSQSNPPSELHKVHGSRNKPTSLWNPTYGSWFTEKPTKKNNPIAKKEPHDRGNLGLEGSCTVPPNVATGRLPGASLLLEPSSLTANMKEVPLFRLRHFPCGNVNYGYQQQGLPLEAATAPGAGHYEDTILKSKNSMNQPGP

As to `C=CC(=O)Nc1cccc(Oc2nc(Nc3ccc(N4CCN(C)CC4)cc3OC)ncc2Cl)c1` [WZ4002], the “Covalent binding to EGFR” value in assay [1] is listed as “known to bind covalently to EGFR”. Moreover, the “Binding to MET” value in [2] is “known to bind”. Besides, the “Binding to ALK” value in [3] is recorded as “known to bind”.

Regarding `C=CC(=O)Nc1cccc(Nc2nc(Nc3ccccc3)ncc2Cl)c1` [compound 1, N‐(3‐{[5‐chloro‐2‐(phenylamino)pyrimidin‐4‐yl]amino}phenyl)prop‐2‐enamide], the Kd amounted to 57 nM in [4] (setting [12]); 5.7 nM in assay [4] (setting [13]); 25 nM in assay [5] (setting [14]); 3.2 nM in [5] (setting [15]); 420 nM in assay [7]; 110 nM in assay [8]. For the same compound, the Kd in assay [9] is > 1000 nM; in assay [10], 800 nM. For the same compound, the “Percentage comparing 1 or 6 h incubation, EGFR LR” value in assay [4] is listed as 10%. Also, in assay [5], the “Percentage comparing 1 or 6 h incubation, EGFR LR+TM” value stood at 13%. Moreover, the Dissociation behaviour entry in [6] is listed as “slow dissociation behavior”. Further, the Association behaviour entry in [6] is recorded as “relatively slow-binding”. In addition, the “Retention of compound after dilution” value in [6] is on record as “roughly half”.

As to `C=CC(=O)Nc1cccc(Nc2ncc(Cl)c(Nc3ccccc3)n2)c1` [compound 2a, N‐(3‐{[5‐chloro‐4‐(phenylamino)pyrimidin‐2‐yl]amino}phenyl)prop‐2‐enamide], the Kd in assay [4] (setting [16]) turned out to be 340 nM; in [4] (setting [12]), 340 nM; in [4] (setting [13]), 47 nM; in assay [5] (setting [17]), 56 nM; in [5] (setting [14]) it was 56 nM; in assay [5] (setting [15]) it was 8 nM. Besides, the Kd in assay [7] was 710 nM; in assay [8], 110 nM; in assay [9], 250 nM; in assay [10] it was 340 nM. In assay [4], the “Percentage after 30× dilution, EGFR LR” value worked out at 100%. Also, the “Percentage comparing 1 or 6 h incubation, EGFR LR” value in assay [4] came out at 14%. Also, the “Percentage after 30× dilution, EGFR LR+TM” value in [5] is 100%. Also, the “Percentage comparing 1 or 6 h incubation, EGFR LR+TM” value in assay [5] was 14%. The Dissociation behaviour entry in assay [6] is “slow dissociation behavior”. The Association behaviour result in assay [6] was “relatively slow-binding”. In addition, in assay [6], the “Covalent binding to EGFR (both forms)” value was “able to bind covalently”. In addition, the “Retention of compound after dilution” value in assay [6] is reported as “nearly all”.

With `C=CC(=O)NCc1cccc(Nc2ncc(Cl)c(Nc3ccccc3)n2)c1` [compound 2b, N‐[(3‐{[5‐chloro‐4‐(phenylamino)pyrimidin‐2‐yl]amino}phenyl)methyl]prop‐2‐enamide], the Kd in assay [4] (setting [16]) came out at 2900 nM; in assay [4] (setting [12]), 170 nM; in [4] (setting [13]), 110 nM; in [5] (setting [17]), 4100 nM; in assay [5] (setting [14]) it was 58 nM; in assay [5] (setting [15]), 100 nM. The Kd in assay [7] was determined as 780 nM; in assay [8] it was 270 nM; in assay [9] it was 330 nM; in [10] it was 390 nM. Also, the “Percentage after 30× dilution, EGFR LR” value in assay [4] amounted to 5.9%. Moreover, in [4], the “Percentage comparing 1 or 6 h incubation, EGFR LR” value is recorded as 65%. For the same compound, the “Percentage after 30× dilution, EGFR LR+TM” value in assay [5] came out at 1.4%. The “Percentage comparing 1 or 6 h incubation, EGFR LR+TM” value in assay [5] worked out at 170%. Moreover, the “Time within which binding is complete” value in [6] is reported as ≤ 1 h. The “Time within which dissociation is complete” value in assay [6] (after 30-fold dilution) is ≤ 5 h. In [6], the Association behaviour entry is reported as “fast association”. In addition, the “Covalent binding to EGFR (both forms)” value in assay [6] is “no evidence of covalent binding”.

Turning to `C[C@@H](Oc1cc(-c2cnn(C3CCNCC3)c2)cnc1N)c1c(Cl)ccc(F)c1Cl` [crizotinib], the “Weakening of binding to MET mutant Y1230C” value in assay [11] was 15 fold.
